How the values were obtained:
[1] = pharmacokinetic properties in mouse after single intravenous and oral administration; format: in vivo; conditions: PK data in mouse; for clearance / half-life / Cmax / Vd: female, plasma, 0.2 mg/kg; for Cmax: dose-normalized to 1 mg/kg; for Vd: read-out: Vss
From the text: The objective of the study was to obtain information on the pharmacokinetic properties of the compounds of the present invention in female Wistar rats/mice following single intravenous and oral administration.
Female Wistar rats/mice (n=6) received either a single intravenous (bolus) injection or an oral administration (by gavage) of the tested compound.
The concentrations of the compounds in plasma, feces were quantified using an UPLC method with tandem mass spectrometric detection (LC-MS/MS) previously developed at the ‘Institute of Drug Metabolism and Pharmacokinetics’. The LC-MS/MS system consisted of a Waters Acquity UPLC coupled to an AB Sciex mass spectrometer API 5500 Q-trap. […] The detection of the compounds was performed using multiple reaction monitoring in the positive ionization mode. Plasma samples were spiked with internal standard (20 μl) and the analyte was extracted from the matrix using tertiary-butyl methyl ether (tBME). The organic phase was evaporated to dryness under a stream of nitrogen. The residue was dissolved in acetonitrile/0.1% formic acid for LC-MS/MS analysis. Feces samples were homogenized with 4-times their volume of an ethanol/water mixture (4:1, v/v). Aliquots of the aqueous-ethanolic extracts were spiked with internal standard, diluted with acetonitrile/water (1:1, v/v) and directly injected into the LC-MS/MS system.
Pharmacokinetic parameters Cmax and tmax were taken from the observed data. […] AUC values were calculated by non-compartmental analysis using the linear up/log down method. Numerical data for mean plasma concentrations and derived pharmacokinetic parameters were rounded to 3 significant digits for presentation.

[2] = target: T1, human A1 receptor (Homo sapiens, UniProt P30542); assay: functional cAMP (HTRF) assay, recombinant CHO cells expressing human A1 receptor, forskolin, agonist CPA; format: cell-based
T1 construct: expressed in transfected cells; host or cells: CHO
T1 sequence (P30542 1-326): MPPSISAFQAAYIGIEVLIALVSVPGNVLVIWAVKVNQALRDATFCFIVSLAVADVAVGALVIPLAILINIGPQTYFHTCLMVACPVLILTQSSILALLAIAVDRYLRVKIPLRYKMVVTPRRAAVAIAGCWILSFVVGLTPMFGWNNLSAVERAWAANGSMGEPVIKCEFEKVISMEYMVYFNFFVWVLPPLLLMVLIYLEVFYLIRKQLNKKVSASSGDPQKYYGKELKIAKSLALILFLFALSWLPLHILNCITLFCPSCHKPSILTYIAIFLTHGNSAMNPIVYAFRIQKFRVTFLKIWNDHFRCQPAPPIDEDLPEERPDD
Procedure, shortened: (§1)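 Normalized HTRF cAMP signals (inhibitor and DMSO controls as references) were curve-fitted; assays used forskolin-stimulated CHO cells with A1 or A3, agonist CPA or IB-MECA respectively, 30 min compound incubation.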

[3] = target: T2, A2B receptors (Homo sapiens, UniProt P29275); assay: functional cAMP (HTRF) assay, recombinant HEK293 cells expressing human A2B receptor, agonist NECA; format: cell-based; design: expressed in transfected cells; host or cells: HEK293
T2 sequence (P29275 1-332): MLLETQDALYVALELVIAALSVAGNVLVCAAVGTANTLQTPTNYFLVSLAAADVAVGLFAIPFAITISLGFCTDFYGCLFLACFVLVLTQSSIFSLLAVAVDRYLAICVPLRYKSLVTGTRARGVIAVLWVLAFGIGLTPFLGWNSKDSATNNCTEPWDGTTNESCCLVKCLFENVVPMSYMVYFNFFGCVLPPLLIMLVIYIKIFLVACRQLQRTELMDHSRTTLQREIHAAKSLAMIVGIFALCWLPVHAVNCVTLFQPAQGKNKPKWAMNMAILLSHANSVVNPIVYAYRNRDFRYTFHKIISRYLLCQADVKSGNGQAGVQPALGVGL

[4] = target: T3, human A3 receptor (Homo sapiens, UniProt P0DMS8); assay: functional cAMP (HTRF) assay, recombinant CHO cells expressing human A3 receptor, forskolin, agonist IB-MECA; format: cell-based
T3 construct: expressed in transfected cells; host or cells: CHO
T3 sequence (P0DMS8 1-318): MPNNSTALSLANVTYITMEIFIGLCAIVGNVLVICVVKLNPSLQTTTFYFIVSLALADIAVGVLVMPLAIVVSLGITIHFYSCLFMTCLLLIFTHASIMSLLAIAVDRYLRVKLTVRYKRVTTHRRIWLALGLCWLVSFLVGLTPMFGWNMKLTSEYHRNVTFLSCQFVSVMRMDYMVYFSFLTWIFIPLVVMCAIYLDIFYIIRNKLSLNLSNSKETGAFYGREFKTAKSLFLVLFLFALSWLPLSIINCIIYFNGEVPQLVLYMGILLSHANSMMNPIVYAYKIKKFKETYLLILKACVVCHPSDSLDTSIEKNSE
Procedure, shortened: as §1

[5] = target: T4, human A2A receptor (Homo sapiens, UniProt P29274); assay: functional cAMP (HTRF) assay, recombinant HEK293 cells expressing human A2A receptor, agonist NECA; format: cell-based
T4 construct: expressed in transfected cells; host or cells: HEK293
T4 sequence (P29274 whole entry): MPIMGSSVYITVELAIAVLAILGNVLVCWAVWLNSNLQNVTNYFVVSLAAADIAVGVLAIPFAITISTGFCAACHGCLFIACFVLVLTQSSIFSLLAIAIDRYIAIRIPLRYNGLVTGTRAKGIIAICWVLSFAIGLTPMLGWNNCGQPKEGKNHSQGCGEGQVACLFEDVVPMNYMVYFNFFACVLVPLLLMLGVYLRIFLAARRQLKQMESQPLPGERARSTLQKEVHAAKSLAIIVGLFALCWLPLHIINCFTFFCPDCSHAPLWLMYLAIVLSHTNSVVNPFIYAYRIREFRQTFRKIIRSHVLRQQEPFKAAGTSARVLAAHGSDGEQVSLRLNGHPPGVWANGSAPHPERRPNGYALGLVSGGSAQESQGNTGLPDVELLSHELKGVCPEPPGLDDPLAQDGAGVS

| Compound | Feces iv ([1]; @0.08 (dose, unit not given)) | clearance [1] | half-life [1] | Cmax [1] | Vd [1] | Feces iv ([1]; @0.2 (dose, unit not given)) | IC50 [2] | IC50 [3] | IC50 [4] | IC50 [5] |
| --- | --- | --- | --- | --- | --- | --- | --- | --- | --- | --- |
| COc1ccc(N2CCOCC2)c2nc(NC(=O)N3CCC(C)(O)CC3)[nH]c12 [compound 21, 4-hydroxy-N-(7-methoxy-4-morpholino-1H-benzimidazol-2-yl)-4-methyl-piperidine-1-carboxamide] | 38@0.08% | 12.7 mL/min/kg | 50.3 min | 2650 ng/mL | 0.508 L/kg |  |  |  |  |  |
| COc1ccc(-c2cnn(C)c2)c2nc(NC(=O)N3CCC(C)(O)CC3)[nH]c12 [compound 22, 4-Hydroxy-4-methyl-piperidine-1-carboxylic acid [7-methoxy-4-(1-methyl-1H-pyrazol-4-yl)-1H-benzoimidazol-2-yl]-amide] |  | 19.5 mL/min/kg | 52 min | 1320 ng/mL | 1.02 L/kg | 46@0.2% |  |  |  |  |
| COc1ccc(N2CCOCC2)c2nc(NC(=O)c3ccnc(N4CCOCC4)c3)[nH]c12 [compound 23, N-(7-Methoxy-4-morpholin-4-yl-1H-benzoimidazol-2-yl)-2-morpholin-4-yl-isonicotinamide] |  | 10.3 mL/min/kg | 103 min | 733 ng/mL | 1.54 L/kg | 11@0.2% |  |  |  |  |
| COc1ccc(-c2cnn(C)c2)c2nc(NC(=O)N3CC[C@]4(CCOC4)C3)[nH]c12 [compound 115, (5S)-N-[7-methoxy-4-(1-methyl-1H-pyrazol-4-yl)-1H-1,3-benzodiazol-2-yl]-2-oxa-7-azaspiro[4.4]nonane-7-carboxamide] |  | 5.4 mL/min/kg | 59.3 min | 2450 ng/mL | 0.425 L/kg | 8.6@0.2% |  |  |  |  |
| COc1ccc(-c2cnn(C)c2)c2nc(NC(=O)N3CC[C@@]4(CCOC4)C3)[nH]c12 [compound 116, (5R)-N-[7-methoxy-4-(1-methyl-1H-pyrazol-4-yl)-1H-1,3-benzodiazol-2-yl]-2-oxa-7-azaspiro[4.4]nonane-7-carboxamide] |  | 12.3 mL/min/kg | 58 min | 1130 ng/mL | 0.917 L/kg | 16.9@0.2% |  |  |  |  |
| COc1ccc(-c2cccc3[nH]ncc23)c2nc(NC(=O)N3CCC(C)(O)CC3)[nH]c12 [compound 271, 4-hydroxy-N-[4-(1H-indazol-4-yl)-7-methoxy-1H-1,3-benzodiazol-2-yl]-4-methylpiperidine-1-carboxamide] |  |  |  |  |  |  | > 1000 nM | < 100 nM | > 1000 nM | < 100 nM |
| COCCn1cc(C(=O)Nc2nc3c(-c4ccnc5[nH]ccc45)ccc(OC)c3[nH]2)cn1 [compound 278, N-(7-methoxy-4-{1H-pyrrolo[2,3-b]pyridin-4-yl}-1H-1,3-benzodiazol-2-yl)-1-(2-methoxyethyl)-1H-pyrazole-4-carboxamide] |  |  |  |  |  |  | > 1000 nM | < 100 nM | < 1000 nM | < 100 nM |
| COCCn1cc(C(=O)Nc2nc3c(-c4cccc5[nH]ncc45)ccc(OC)c3[nH]2)cn1 [compound 279, N-[4-(1H-indazol-4-yl)-7-methoxy-1H-1,3-benzodiazol-2-yl]-1-(2-methoxyethyl)-1H-pyrazole-4-carboxamide] |  |  |  |  |  |  | < 1000 nM | < 100 nM | < 1000 nM | < 100 nM |
| COCCn1cc(C(=O)Nc2nc3c(-c4ccc5[nH]nc(C)c5c4)ccc(OC)c3[nH]2)cn1 [compound 282, N-[7-methoxy-4-(3-methyl-1H-indazol-5-yl)-1H-1,3-benzodiazol-2-yl]-1-(2-methoxyethyl)-1H-pyrazole-4-carboxamide] |  |  |  |  |  |  | < 1000 nM | < 100 nM | < 1000 nM | < 100 nM |
| COCCn1cc(C(=O)Nc2nc3c(-c4cccc5c4CCN5)ccc(OC)c3[nH]2)cn1 [compound 283, N-[4-(2,3-dihydro-1H-indol-4-yl)-7-methoxy-1H-1,3-benzodiazol-2-yl]-1-(2-methoxyethyl)-1H-pyrazole-4-carboxamide] |  |  |  |  |  |  | > 1000 nM | < 100 nM | < 1000 nM | < 100 nM |
| COc1ccc(-c2ccccc2)c2nc(NC(=O)c3ccc(C(=O)N(C)C)cn3)[nH]c12 [compound 284, N2-(7-methoxy-4-phenyl-1H-1,3-benzodiazol-2-yl)-N5,N5-dimethylpyridine-2,5-dicarboxamide] |  |  |  |  |  |  | > 1000 nM | < 100 nM | > 1000 nM | < 100 nM |
| COc1ccc(-c2ccccc2)c2nc(NC(=O)c3ccc(N4C(=O)CCC4=O)cc3)[nH]c12 [compound 285, 4-(2,5-dioxopyrrolidin-1-yl)-N-(7-methoxy-4-phenyl-1H-1,3-benzodiazol-2-yl)benzamide] |  |  |  |  |  |  | < 1000 nM | < 10 nM | < 1000 nM | < 100 nM |
| COc1ccc(-c2ccccc2)c2nc(NC(=O)N3CCC(F)(F)CC3)[nH]c12 [compound 287, 4,4-difluoro-N-(7-methoxy-4-phenyl-1H-1,3-benzodiazol-2-yl)piperidine-1-carboxamide] |  |  |  |  |  |  | < 1000 nM | < 100 nM | > 1000 nM | < 100 nM |
| COc1ccc(-c2ccccc2)c2[nH]c(NC(=O)c3ccc(C(=O)NCCO)cc3)nc12 [compound 312, N1-(2-hydroxyethyl)-N4-(4-methoxy-7-phenyl-1H-1,3-benzodiazol-2-yl)benzene-1,4-dicarboxamide] |  |  |  |  |  |  | < 1000 nM | < 10 nM | < 1000 nM | < 10 nM |
| COc1ccc(C2=CCOCC2)c2nc(NC(=O)C3CC3)[nH]c12 [compound 314, N-[4-(3,6-dihydro-2H-pyran-4-yl)-7-methoxy-1H-1,3-benzodiazol-2-yl]cyclopropanecarboxamide] |  |  |  |  |  |  | > 1000 nM | < 1000 nM | < 1000 nM | < 100 nM |
| COc1ccc(-c2cccnc2)c2nc(NC(=O)C3CC3)[nH]c12 [compound 315, N-[7-methoxy-4-(pyridin-3-yl)-1H-1,3-benzodiazol-2-yl]cyclopropanecarboxamide] |  |  |  |  |  |  | > 1000 nM | < 100 nM | < 1000 nM | < 100 nM |
| COc1ccc(-c2ccc(F)cc2)c2nc(NC(=O)c3ccc(C(=O)N(C)C)cc3)[nH]c12 [compound 316, N4-[4-(4-fluorophenyl)-7-methoxy-1H-1,3-benzodiazol-2-yl]-N1,N1-dimethylbenzene-1,4-dicarboxamide] |  |  |  |  |  |  | < 1000 nM | < 10 nM | < 1000 nM | < 10 nM |
| COc1ccc(-c2ccc(F)cc2)c2nc(NC(=O)c3ccc(N4C(=O)CCC4=O)cc3)[nH]c12 [compound 317, 4-(2,5-dioxopyrrolidin-1-yl)-N-[4-(4-fluorophenyl)-7-methoxy-1H-1,3-benzodiazol-2-yl]benzamide] |  |  |  |  |  |  | < 1000 nM | < 10 nM | < 1000 nM | < 10 nM |
| COc1ccc(-c2ccc(F)cc2)c2nc(NC(=O)c3cnn(C)c3)[nH]c12 [compound 318, N-[4-(4-fluorophenyl)-7-methoxy-1H-1,3-benzodiazol-2-yl]-1-methyl-1H-pyrazole-4-carboxamide] |  |  |  |  |  |  | < 100 nM | < 10 nM | < 100 nM | < 10 nM |

From patent publication US11453647B2, “Benzimidazole derivatives as adenosine receptor antagonists” (Merck Patent GmbH, priority 2017, dated 2022)
